Laboratory results: ChEMBL document CHEMBL5154810, “Development of Potent Immune Modulators Targeting Stimulator of Interferon Genes Receptor” (J Med Chem, 2022)
pEC50, pIC50: −log10 of the molar value. Active and inactive are the calls of the source. The rule behind the calls is not given here.

Experiments:
Cytochrome P450 3A4 = Cytochrome P450 3A4 (Homo sapiens, UniProt P08684); experiment: Inhibition of CYP3A4 in human liver microsomes using […] as cocktail probe substrate preincubated for 5 mins followed by NADPH addition and measured after 30 mins by HPLC-MS/MS analysis; format: ADME, Microsome
[1] = Stability in human plasma assessed as parent compound remaining at 5 uM measured after 4 hrs by HPLC-MS/MS analysis; format: ADME, cell-free; conditions: read-out: Stability
[2] = biological target: T1, Stimulator of interferon genes protein (Homo sapiens, UniProt Q86WV6); experiment: Activation of STING mediated immune response in human THP-1 cells assessed as induction of IFNbeta secretion measured after 24 hrs by ELISA; format: cell-based
THP-1 [3] = experiment: Upregulation of IFNB in human THP-1 cells at 100 nM measured after 6 hrs by RT-PCR analysis; format: functional, cell-based
[4] = Stability in mouse plasma assessed as parent compound remaining at 5 uM measured after 4 hrs by HPLC-MS/MS analysis; format: ADME, cell-free; conditions: read-out: Stability
[5] = biological target: T1, Stimulator of interferon genes protein; experiment: Activation of STING dependent immune response in wild type human THP1-Dual cells assessed as induction of IFN-beta secretion at 1.28 to 3.2 nM measured after 24 hrs by ELISA; format: cell-based; conditions: filed as activator, dose 1.28-3.2 nM
THP-1 [6] = experiment: Upregulation of IFIT3 in human THP-1 cells at 100 nM measured after 6 to 18 hrs by RT-PCR analysis; format: functional, cell-based; conditions: time 6-18 hrs
[7] = Solubility of the compound in DMSO at 50 to 100 uM incubated for 72 hrs; format: physicochemical; conditions: dose 50-100 µM
CT26 [8] = experiment: Antitumor activity against CT26 cells injected in BALB/c syngenic mouse model assessed as tumor growth inhibition at 1.5 mg/kg, iv measured after 17 days; format: functional; conditions: CT26, 408 h, time 17 day, read-out: TGI
THP-1 [9] = experiment: […] of IFNB in human THP-1 cells at 100 nM measured after 18 hrs by RT-PCR analysis; format: functional, cell-based
[10] = Stability in mouse liver microsome assessed as parent compound remaining at 1 uM measured after 30 mins in the presence of NADPH by HPLC-MS/MS analysis; format: ADME; conditions: liver microsomes, read-out: Stability
[11] = biological target: T2, Stimulator of interferon genes protein (Mus musculus) (UniProt Q3TBT3); experiment: Activation of STING mediated immune response in mouse RAW264.7 cells assessed as induction of IFNbeta secretion measured after 24 hrs by ELISA; format: cell-based; conditions: filed as activator, dose 0.32-5000 nM, DDE = dose-dependent effect
T2 sequence (whole entry): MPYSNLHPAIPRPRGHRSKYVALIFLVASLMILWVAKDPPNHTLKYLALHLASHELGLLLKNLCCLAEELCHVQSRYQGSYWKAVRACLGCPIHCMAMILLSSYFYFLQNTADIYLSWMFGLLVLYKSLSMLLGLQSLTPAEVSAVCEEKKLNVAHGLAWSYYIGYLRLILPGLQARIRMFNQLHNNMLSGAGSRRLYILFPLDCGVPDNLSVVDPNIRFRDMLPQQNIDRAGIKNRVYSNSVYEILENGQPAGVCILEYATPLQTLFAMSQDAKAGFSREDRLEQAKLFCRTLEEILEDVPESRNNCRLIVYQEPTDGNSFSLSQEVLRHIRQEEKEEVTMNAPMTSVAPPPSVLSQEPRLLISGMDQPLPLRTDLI

[12] = biological target: T1, Stimulator of interferon genes protein; experiment: Activation of STING pathway in human THP-1 cells assessed as increase in TBK1 phosphorylation at 2 nM incubated for 6 hrs by Western blotting analysis; format: cell-based; conditions: filed as activator
[13] = biological target: T1, Stimulator of interferon genes protein; experiment: Activation of STING mediated immune response in human THP-1 cells assessed as induction of IP-10 secretion measured after 24 hrs by ELISA; format: cell-based; conditions: filed as activator, dose 0.41-100 nM, DDE = dose-dependent effect
Cytochrome P450 2C19 = Cytochrome P450 2C19 (Homo sapiens, UniProt P33261); experiment: Inhibition of CYP2C19 in human liver microsomes using S-mephenytoin as cocktail probe substrate preincubated for 5 mins followed by NADPH addition and measured after 30 mins by HPLC-MS/MS analysis; format: ADME, Microsome
CT26 [14] = experiment: Antitumor immunity activity against mouse CT26 cells xenografted in BALB/c mouse model assessed as tumor growth inhibition at 1.5 mg/kg, iv measured after 8 days; format: functional, organism-based; conditions: time 8.0 day
[15] = Terminal half life in BALB/c mouse at 3 mg/kg, iv by LC-MS/MS analysis; format: ADME, organism-based; conditions: in vivo, read-out: beta t1/2 (converted)
Mus musculus = experiment: Upregulation of IFN-beta in BALB/c mouse serum at 1.5 mg/kg, iv measured after 4 hrs by ELISA; format: functional, organism-based
[16] = biological target: T1, Stimulator of interferon genes protein; experiment: Activation of STING pathway in human THP1-cells assessed as increase in IRF3 phosphorylation at 2 nM incubated 6 hrs by Western blotting analysis; format: cell-based; conditions: THP-1, filed as activator
Cytochrome P450 2D6 = Cytochrome P450 2D6 (Homo sapiens, UniProt P10635); experiment: Inhibition of CYP2D6 in human liver microsomes using dextromethorphan as cocktail probe substrate preincubated for 5 mins followed by NADPH addition and meaured after 30 mins by HPLC-MS/MS analysis; format: ADME, Microsome
[17] = biological target: T1, Stimulator of interferon genes protein; experiment: Binding affinity to STING in human THP-1 cells assessed as thermal stabilization at 48 to 55 degC at 100 nM incubated for 4 hrs by western blotting based CETSA assay; format: cell-based; conditions: filed as activator
[18] = biological target: Nuclear factor NF-kappa-B complex (Homo sapiens) (UniProt Q00653+P19838+Q04206); experiment: Activation of NF-kappaB mediated pro-inflammatory effector proteins in human THP-1 cells at 2 to 10 nM incubated for 4 hrs by western blot analysis; format: cell-based; conditions: filed as activator, dose 2-10 nM
[19] = biological target: T2, Stimulator of interferon genes protein (Mus musculus); experiment: Activation of STING mediated immune response in mouse RAW264.7 cells assessed as induction of IP-10 secretion measured after 24 hrs by ELISA; format: cell-based; conditions: filed as activator, dose 0.32-5000 nM, DDE = dose-dependent effect
[20] = biological target: T1, Stimulator of interferon genes protein; experiment: Activation of STING pathway in human THP1-cells assessed as increase in STAT1 phosphorylation at 2 nM incubated for 6 hrs by Western blotting analysis; format: cell-based; conditions: THP-1, filed as activator
THP-1 [21] = experiment: Upregulation of CXCL10 in human THP-1 cells at 100 nM measured after 6 to 18 hrs by RT-PCR analysis; format: functional, cell-based; conditions: time 6-18 hrs
CT26 [22] = experiment: Antitumor activity against CT26 cells injected in BALB/c syngenic mouse model assessed as reduction in tumor growth at 0.015 to 1.5 mg/kg, iv measured every 2 to 3 days for 17 days; format: functional, organism-based; conditions: dose 0.015-1.5 mg/kg, time 17.0 day
THP-1 [23] = experiment: Upregulation of OAS1 in human THP-1 cells at 100 nM measured after 6 to 18 hrs by RT-PCR analysis; format: functional, cell-based; conditions: time 6-18 hrs
RAW264.7 = experiment: Activation of NF-kappaB mediated pro-inflammatory effector proteins in mouse RAW264.7 cells at 100 to 500 nM for incubated for 3 hrs by western blot analysis; format: cell-based; conditions: filed as activator, dose 100-500 nM

T1 sequence (Q86WV6 whole entry): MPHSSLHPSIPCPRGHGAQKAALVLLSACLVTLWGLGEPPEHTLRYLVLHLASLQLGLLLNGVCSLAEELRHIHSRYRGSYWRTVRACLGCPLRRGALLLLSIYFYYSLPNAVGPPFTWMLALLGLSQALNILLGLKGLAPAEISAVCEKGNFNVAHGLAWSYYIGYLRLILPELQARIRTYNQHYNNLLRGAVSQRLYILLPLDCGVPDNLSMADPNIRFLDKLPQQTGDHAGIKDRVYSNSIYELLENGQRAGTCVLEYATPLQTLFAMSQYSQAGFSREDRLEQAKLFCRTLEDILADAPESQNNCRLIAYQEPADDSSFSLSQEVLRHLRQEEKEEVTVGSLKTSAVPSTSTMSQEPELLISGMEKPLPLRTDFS
Chain of Nuclear factor NF-kappa-B complex (Homo sapiens) (P19838 whole entry, looked up): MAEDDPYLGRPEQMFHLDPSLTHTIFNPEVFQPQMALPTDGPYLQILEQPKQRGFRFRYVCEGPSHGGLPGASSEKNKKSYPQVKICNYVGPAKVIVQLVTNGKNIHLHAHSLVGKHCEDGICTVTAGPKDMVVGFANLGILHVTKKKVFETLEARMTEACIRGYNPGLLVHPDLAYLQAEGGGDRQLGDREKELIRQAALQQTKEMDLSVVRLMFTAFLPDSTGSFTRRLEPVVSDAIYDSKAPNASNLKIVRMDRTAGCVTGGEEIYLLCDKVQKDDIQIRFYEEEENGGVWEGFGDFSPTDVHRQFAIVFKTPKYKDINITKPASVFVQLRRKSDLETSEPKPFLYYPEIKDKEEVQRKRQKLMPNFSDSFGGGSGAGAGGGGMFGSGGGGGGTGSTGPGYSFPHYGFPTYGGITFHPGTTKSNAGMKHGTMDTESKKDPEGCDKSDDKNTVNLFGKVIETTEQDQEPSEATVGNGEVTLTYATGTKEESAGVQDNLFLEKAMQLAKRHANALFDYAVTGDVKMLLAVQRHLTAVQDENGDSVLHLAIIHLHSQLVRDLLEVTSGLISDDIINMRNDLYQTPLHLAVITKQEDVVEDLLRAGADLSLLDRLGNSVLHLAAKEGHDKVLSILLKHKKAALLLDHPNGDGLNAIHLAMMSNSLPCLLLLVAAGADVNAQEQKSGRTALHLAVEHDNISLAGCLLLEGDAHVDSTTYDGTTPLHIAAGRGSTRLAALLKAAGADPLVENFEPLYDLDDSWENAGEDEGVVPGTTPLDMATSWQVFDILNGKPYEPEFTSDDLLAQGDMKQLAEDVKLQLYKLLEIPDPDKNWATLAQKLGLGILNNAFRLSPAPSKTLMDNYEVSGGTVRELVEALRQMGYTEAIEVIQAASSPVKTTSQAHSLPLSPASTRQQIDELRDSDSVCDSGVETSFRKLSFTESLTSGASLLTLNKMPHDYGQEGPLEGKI
Chain of Nuclear factor NF-kappa-B complex (Homo sapiens) (Q00653 whole entry, looked up): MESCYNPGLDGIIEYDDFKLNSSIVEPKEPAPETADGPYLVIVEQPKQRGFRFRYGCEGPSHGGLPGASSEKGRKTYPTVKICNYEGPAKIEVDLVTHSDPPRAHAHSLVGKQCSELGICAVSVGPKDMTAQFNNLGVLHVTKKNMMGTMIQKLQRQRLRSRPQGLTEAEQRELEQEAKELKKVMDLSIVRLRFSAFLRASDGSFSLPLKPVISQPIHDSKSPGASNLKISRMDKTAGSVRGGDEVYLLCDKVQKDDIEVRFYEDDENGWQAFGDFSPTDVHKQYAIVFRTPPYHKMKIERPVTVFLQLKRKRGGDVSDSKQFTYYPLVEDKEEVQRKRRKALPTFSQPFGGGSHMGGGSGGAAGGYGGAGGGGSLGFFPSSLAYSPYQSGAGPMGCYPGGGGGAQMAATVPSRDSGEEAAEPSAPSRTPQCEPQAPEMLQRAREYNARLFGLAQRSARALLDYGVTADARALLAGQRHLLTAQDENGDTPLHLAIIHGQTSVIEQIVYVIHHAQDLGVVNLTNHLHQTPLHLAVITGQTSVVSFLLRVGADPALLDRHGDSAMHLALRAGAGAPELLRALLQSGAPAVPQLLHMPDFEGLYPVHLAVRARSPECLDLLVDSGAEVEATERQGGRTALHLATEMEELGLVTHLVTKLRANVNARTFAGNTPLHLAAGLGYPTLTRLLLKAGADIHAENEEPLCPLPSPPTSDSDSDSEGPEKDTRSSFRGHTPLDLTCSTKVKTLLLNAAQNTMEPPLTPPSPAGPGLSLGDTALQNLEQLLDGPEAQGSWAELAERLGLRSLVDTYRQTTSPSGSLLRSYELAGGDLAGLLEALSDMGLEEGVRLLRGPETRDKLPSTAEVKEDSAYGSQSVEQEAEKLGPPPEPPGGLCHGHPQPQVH
Chain of Nuclear factor NF-kappa-B complex (Homo sapiens) (Q04206 whole entry, looked up): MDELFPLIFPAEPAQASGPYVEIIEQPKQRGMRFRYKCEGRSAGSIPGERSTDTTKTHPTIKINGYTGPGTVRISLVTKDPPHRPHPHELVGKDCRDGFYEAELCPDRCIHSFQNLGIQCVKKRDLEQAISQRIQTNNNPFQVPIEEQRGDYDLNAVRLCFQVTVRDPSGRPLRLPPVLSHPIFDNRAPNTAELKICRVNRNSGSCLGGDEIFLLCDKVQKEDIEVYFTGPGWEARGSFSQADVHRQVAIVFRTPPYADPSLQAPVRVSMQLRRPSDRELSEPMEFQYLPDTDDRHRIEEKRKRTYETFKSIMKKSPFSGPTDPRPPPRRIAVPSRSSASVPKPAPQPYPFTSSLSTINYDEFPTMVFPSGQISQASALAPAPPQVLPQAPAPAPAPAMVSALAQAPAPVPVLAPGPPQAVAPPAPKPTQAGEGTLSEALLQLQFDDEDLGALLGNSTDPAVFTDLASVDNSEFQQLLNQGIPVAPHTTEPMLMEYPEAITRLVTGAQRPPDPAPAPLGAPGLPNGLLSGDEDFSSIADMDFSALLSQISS
Chain of Cytochrome P450 2D6 (P10635 whole entry): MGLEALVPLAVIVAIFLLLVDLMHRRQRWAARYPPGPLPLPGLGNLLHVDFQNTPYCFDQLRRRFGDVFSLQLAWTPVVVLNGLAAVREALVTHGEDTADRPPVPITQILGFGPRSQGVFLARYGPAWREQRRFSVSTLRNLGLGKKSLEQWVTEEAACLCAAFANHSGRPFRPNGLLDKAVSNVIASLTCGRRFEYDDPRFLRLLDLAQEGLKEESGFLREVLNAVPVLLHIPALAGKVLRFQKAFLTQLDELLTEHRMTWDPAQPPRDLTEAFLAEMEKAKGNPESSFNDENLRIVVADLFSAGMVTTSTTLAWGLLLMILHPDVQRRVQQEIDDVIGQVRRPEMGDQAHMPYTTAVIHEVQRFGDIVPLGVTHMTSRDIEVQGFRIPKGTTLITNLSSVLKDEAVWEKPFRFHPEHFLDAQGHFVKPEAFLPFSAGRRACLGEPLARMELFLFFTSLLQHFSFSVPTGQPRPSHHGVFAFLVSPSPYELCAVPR
Chain of Cytochrome P450 2C19 (P33261 whole entry): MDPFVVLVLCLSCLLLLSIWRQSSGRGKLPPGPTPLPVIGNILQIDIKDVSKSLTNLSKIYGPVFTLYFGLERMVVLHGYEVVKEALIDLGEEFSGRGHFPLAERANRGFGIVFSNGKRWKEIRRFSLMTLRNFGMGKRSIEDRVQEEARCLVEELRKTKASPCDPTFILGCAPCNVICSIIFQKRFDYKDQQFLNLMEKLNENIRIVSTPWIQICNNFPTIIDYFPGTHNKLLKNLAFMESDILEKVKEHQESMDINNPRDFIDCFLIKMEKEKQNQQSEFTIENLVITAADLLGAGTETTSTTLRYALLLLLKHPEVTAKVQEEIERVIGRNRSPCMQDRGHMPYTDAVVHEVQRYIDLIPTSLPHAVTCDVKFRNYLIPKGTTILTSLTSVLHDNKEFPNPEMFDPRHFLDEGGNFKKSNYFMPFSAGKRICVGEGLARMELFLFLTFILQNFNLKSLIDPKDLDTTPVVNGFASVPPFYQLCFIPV
Chain of Cytochrome P450 3A4 (P08684 whole entry): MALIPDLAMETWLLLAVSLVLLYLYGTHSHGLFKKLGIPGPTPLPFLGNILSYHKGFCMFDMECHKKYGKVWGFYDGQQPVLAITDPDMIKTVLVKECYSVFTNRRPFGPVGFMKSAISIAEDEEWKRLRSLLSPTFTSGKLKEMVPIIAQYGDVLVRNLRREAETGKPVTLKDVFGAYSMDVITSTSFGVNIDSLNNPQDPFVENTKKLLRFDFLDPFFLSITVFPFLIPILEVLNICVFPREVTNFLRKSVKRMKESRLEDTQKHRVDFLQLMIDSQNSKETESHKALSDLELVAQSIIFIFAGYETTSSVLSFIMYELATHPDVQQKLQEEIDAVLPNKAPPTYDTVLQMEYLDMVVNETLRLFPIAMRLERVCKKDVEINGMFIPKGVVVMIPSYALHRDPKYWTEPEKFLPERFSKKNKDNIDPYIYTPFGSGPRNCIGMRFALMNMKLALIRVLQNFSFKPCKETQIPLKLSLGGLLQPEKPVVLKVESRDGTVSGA

pIC50 (Cytochrome P450 3A4): 5.38
remaining at 4 h, 5 µM [1]: > 99%
pEC50 [2]: 8.70
Activity ([2]; filed as activator, dose 0.12-2000 nM, DDE = dose-dependent effect): Dde
remaining at 4 h, 5 µM [4]: > 99%
Activity [5]: Active
solubility [7]: Soluble
remaining at 0.5 h, 1 µM [10]: 38.7%
Activity [11]: Dde
Activity [12]: Active
Activity [13]: Dde
pIC50 (Cytochrome P450 2C19): < 4.00
half-life [15]: 10.5 h
Activity [16]: Active
pIC50 (Cytochrome P450 2D6): < 4.00
Activity [17]: Active
Activity [18]: Active
Activity [19]: Dde
Activity [20]: Active
Compound: CCn1nc(C)cc1C(=O)Nc1nc2cc(C(N)=O)cc(OC)c2n1C/C=C/Cn1c(NC(=O)c2cc(C)nn2CC)nc2cc(C(N)=O)cc(OCCCNC(=O)OC(C)(C)C)c21
Activity (THP-1 [3]): Active
Activity (THP-1 [6]): Active
inhibition in vivo at 1.5 mg/kg (CT26 [8]): 57%
Activity (THP-1 [9]): Active
Activity (CT26 [14]): Active
Activity (Mus musculus): Active
Activity (THP-1 [21]): Active
Activity (CT26 [22]): Active
Activity (THP-1 [23]): Active
Activity (RAW264.7): Active
